This passage reports activation, EC50 and Emax results from US8119624B2, “Fused phenyl amido heterocyclic compounds” (Pfizer Inc., priority 2006, dated 2012).

For this assay, the target named is T1, Full-length glucokinase (beta cell isoform) (Homo sapiens, UniProt P35557).
T1 construct: Full-length glucokinase (beta cell isoform) was His-tagged at N-terminus; His tag (N); made in house
T1 sequence (P35557 1-465): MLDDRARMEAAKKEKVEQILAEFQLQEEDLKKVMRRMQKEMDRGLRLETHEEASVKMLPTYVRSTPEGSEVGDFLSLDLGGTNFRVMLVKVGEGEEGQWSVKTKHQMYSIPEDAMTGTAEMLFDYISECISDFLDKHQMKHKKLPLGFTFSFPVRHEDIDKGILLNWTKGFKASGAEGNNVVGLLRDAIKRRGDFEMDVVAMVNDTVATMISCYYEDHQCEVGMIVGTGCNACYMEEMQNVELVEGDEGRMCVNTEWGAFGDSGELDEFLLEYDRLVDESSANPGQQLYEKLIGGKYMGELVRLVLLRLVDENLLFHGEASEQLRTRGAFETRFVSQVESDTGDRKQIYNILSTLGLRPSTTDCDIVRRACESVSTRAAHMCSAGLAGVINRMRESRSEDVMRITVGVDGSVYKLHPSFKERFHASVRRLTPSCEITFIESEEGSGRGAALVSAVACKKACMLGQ
Description: Glucokinase biochemical assay (PK/LDH-coupled, NADH depletion at 340 nm): % activation, EC50, % max activation. The settings on record: 5 mM glucose; for activation at 10 µM: 10 uM compound, % Activation=(Va/Vo−1)×100, read-out: % Activation at 10 uM; for EC50: GK activation, read-out: EC50; for Emax: fitted maximum activation, read-out: % Max Activation. The method, boiled down: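 N-terminally His-tagged full-length human beta-cell glucokinase, room temperature, 5 mM glucose, 1 mM ATP, PK/LDH-coupled with 0.7 mM NADH, 1% DMSO final. Initial velocity from the 200–900 s slope of A340 decline. % activation = (Va/Vo−1)×100, measured across compound concentrations.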

Molecules are shown by their SMILES.

Regarding `Cn1ccc(NC(=O)c2cc(Oc3ccc(S(C)(=O)=O)cc3)cc3c2CC(C)(C)O3)n1` [Example 199, 6-(4-Methanesulfonyl-phenoxy)-2,2-dimethyl-2,3-dihydro-benzofuran-4-carboxylic acid (1-methyl-1H-pyrazol-3-yl)-amide], the activation at 10 µM stood at 40.3% and the EC50 was above 10 µM.
For the compound `Cn1ccc(NC(=O)c2cc(Oc3ccc(S(C)(=O)=O)cc3)c3c(c2)OC(CO)C3)n1` (stereo not shown) [Example 200, 2-Hydroxymethyl-4-(4-methanesulfonyl-phenoxy)-2,3-dihydro-benzofuran-6-carboxylic acid (1-methyl-1H-pyrazol-3-yl)-amide], the activation at 10 µM was found to be 113%, the half-maximal effective concentration (EC50) came out at 2.9 µM and the Emax came to 147%.
In the same order, the values of `COCC1Cc2c(Oc3ccc(S(C)(=O)=O)cc3)cc(C(=O)Nc3ccn(C)n3)cc2O1` (stereo not shown) [Example 201, 4-(4-Methanesulfonyl-phenoxy)-2-methoxymethyl-2,3-dihydro-benzofuran-6-carboxylic acid (1-methyl-1H-pyrazol-3-yl)-amide] are 107%, 2.8 µM and 137%.
In the same order, the values of `Cn1ccc(NC(=O)c2cc(Oc3ccc(C(=O)N4CCC4)c(F)c3)c3c(c2)OC(CO)C3)n1` (stereo not shown) [Example 202, 4-[4-(Azetidine-1-carbonyl)-3-fluoro-phenoxy]-2-hydroxymethyl-2,3-dihydro-benzofuran-6-carboxylic acid (1-methyl-1H-pyrazol-3-yl)-amide] are 121%, 0.36 µM and 108%.
In the same order, the values of `Cc1ccc(NC(=O)c2cc(Oc3ccc(C(=O)N4CCC4)c(F)c3)c3c(c2)OC(CO)C3)nc1` (stereo not shown) [Example 203, 4-[4-(Azetidine-1-carbonyl)-3-fluoro-phenoxy]-2-hydroxymethyl-2,3-dihydro-benzofuran-6-carboxylic acid (5-methyl-pyridin-2-yl)-amide] are 82.6%, 0.81 µM and 91%.
Consider `COCC1Cc2c(Oc3ccc(C(=O)N4CCC4)c(F)c3)cc(C(=O)Nc3ccn(C)n3)cc2O1` (stereo not shown) [Example 204, 4-[4-(Azetidine-1-carbonyl)-3-fluoro-phenoxy]-2-methoxymethyl-2,3-dihydro-benzofuran-6-carboxylic acid (1-methyl-1H-pyrazol-3-yl)-amide], for which the activation at 10 µM was found to be 73.9%, the EC50 was 2 µM and the Emax is 94%.
In the case of `COCC1Cc2c(Oc3ccc(C(=O)N(C)C)c(F)c3)cc(C(=O)Nc3ccn(C)n3)cc2O1` (stereo not shown) [Example 205, 4-(4-Dimethylcarbamoyl-3-fluoro-phenoxy)-2-methoxymethyl-2,3-dihydro-benzofuran-6-carboxylic acid (1-methyl-1H-pyrazol-3-yl)-amide], the activation at 10 µM was determined as 90.8%, the concentration for a half-maximal effect (EC50) stood at 0.42 µM and the Emax worked out at 94.5%.
Turning to `COCC1Cc2c(Oc3ccc(C(=O)N4CCC4)cc3)cc(C(=O)Nc3ccn(C)n3)cc2O1` (stereo not shown) [Example 208, 4-[4-(Azetidine-1-carbonyl)-phenoxy]-2-methoxymethyl-2,3-dihydro-benzofuran-6-carboxylic acid (1-methyl-1H-pyrazol-3-yl)-amide], the activation at 10 µM is 83.9%, the 50% effective concentration (EC50) amounted to 0.71 µM and the Emax worked out at 98%.
In the case of `COCC1Cc2c(Oc3ccc(C(=O)N(C)C)cc3)cc(C(=O)Nc3ccn(C)n3)cc2O1` (stereo not shown) [Example 211, 4-(4-Dimethylcarbamoyl-phenoxy)-2-methoxymethyl-2,3-dihydro-benzofuran-6-carboxylic acid (1-methyl-1H-pyrazol-3-yl)-amide], the activation at 10 µM turned out to be 83.5%, the EC50 came to 1.3 µM and the Emax is 90%.
As to `CC(C)Oc1cc(C(=O)Nc2ccn(C)n2)cc2c1CC(COc1ccccc1)O2` (stereo not shown) [Example 214, 4-Isopropoxy-2-phenoxymethyl-2,3-dihydro-benzofuran-6-carboxylic acid (1-methyl-1H-pyrazol-3-yl)-amide], the activation at 10 µM turned out to be 12%.
Consider `CC(C)Oc1cc(C(=O)Nc2ccn(C)n2)cc2c1CC(CO)O2` (stereo not shown) [Example 215, 2-Hydroxymethyl-4-isopropoxy-2,3-dihydro-benzofuran-6-carboxylic acid (1-methyl-1H-pyrazol-3-yl)-amide], for which the activation at 10 µM stood at 16.7%.
The same measure, in the same setting: in the case of `COCC1Cc2c(OC(C)C)cc(C(=O)Nc3ccn(C)n3)cc2O1` (stereo not shown) [Example 216, 4-Isopropoxy-2-methoxymethyl-2,3-dihydro-benzofuran-6-carboxylic acid (1-methyl-1H-pyrazol-3-yl)-amide] it was 13%; in that of `CCOCC1Cc2c(OC(C)C)cc(C(=O)Nc3ccn(C)n3)cc2O1` (stereo not shown) [Example 217, 2-Ethoxymethyl-4-isopropoxy-2,3-dihydro-benzofuran-6-carboxylic acid (1-methyl-1H-pyrazol-3-yl)-amide], 5.3%.
For `CC(C)Oc1cc(C(=O)Nc2ccn(C)n2)cc2c1CC(CN(C)C)O2` (stereo not shown) [Example 218, 2-Dimethylaminomethyl-4-isopropoxy-2,3-dihydro-benzofuran-6-carboxylic acid (1-methyl-1H-pyrazol-3-yl)-amide], the activation at 10 µM came to 43.1% and the 50% effective concentration (EC50) is above 10 µM.
Take `CC(C)Oc1cc(C(=O)Nc2ccn(C)n2)cc2c1CC(CNC1CC1)O2` (stereo not shown) [Example 219, 2-Cyclopropylaminomethyl-4-isopropoxy-2,3-dihydro-benzofuran-6-carboxylic acid (1-methyl-1H-pyrazol-3-yl)-amide]: the activation at 10 µM worked out at 8%.
Regarding `CC(C)Oc1cc(C(=O)Nc2ccccn2)cc2c1CC(Cc1ccccc1)O2` (stereo not shown) [Example 220, 2-Benzyl-4-isopropoxy-2,3-dihydro-benzofuran-6-carboxylic acid pyridin-2-ylamide], the activation at 10 µM came out at 13.8%.
On the same count and under the same terms, in the case of `CC(C)Oc1cc(C(=O)Nc2ccn(C)n2)cc2c1CC(Cc1ccccc1)O2` (stereo not shown) [Example 221, 2-Benzyl-4-isopropoxy-2,3-dihydro-benzofuran-6-carboxylic acid (1-methyl-1H-pyrazol-3-yl)-amide] it was 8.4%.
For `Cn1ccc(NC(=O)c2cc(OCc3ccccc3)c3c(c2)OC(C(F)F)C3)n1` (stereo not shown) [Example 222, 4-Benzyloxy-2-difluoromethyl-2,3-dihydro-benzofuran-6-carboxylic acid (1-methyl-1H-pyrazol-3-yl)-amide], the activation at 10 µM is 61.1% and the half-maximal effective concentration (EC50) was above 10 µM.
On to `Cn1ccc(NC(=O)c2cc(Oc3cc(F)c(C(=O)N4CCC4)c(F)c3)c3c(c2)OC(C(F)F)C3)n1` (stereo not shown) [Example 223, 4-[4-(Azetidine-1-carbonyl)-3,5-difluoro-phenoxy]-2-difluoromethyl-2,3-dihydro-benzofuran-6-carboxylic acid (1-methyl-1H-pyrazol-3-yl)-amide], for which the activation at 10 µM stood at 112%, the EC50 was determined as 0.68 µM and the Emax came to 127%.
In the same order, the values of `Cn1ccc(NC(=O)c2cc(Oc3ccc(S(C)(=O)=O)cc3)c3c(c2)OC(CF)C3)n1` (stereo not shown) [Example 224, 2-Fluoromethyl-4-(4-methanesulfonyl-phenoxy)-2,3-dihydro-benzofuran-6-carboxylic acid (1-methyl-1H-pyrazol-3-yl)-amide] are 142%, 2.3 µM and 160%.
On to `Cn1ccc(NC(=O)c2cc(Oc3ccc(S(C)(=O)=O)cc3)c3c(c2)OC(C(F)F)C3)n1` (stereo not shown) [Example 225, 2-Difluoromethyl-4-(4-methanesulfonyl-phenoxy)-2,3-dihydro-benzofuran-6-carboxylic acid (1-methyl-1H-pyrazol-3-yl)-amide], for which the activation at 10 µM came to 103%, the concentration for a half-maximal effect (EC50) is 2.93 µM and the Emax was found to be 242%.
In the same order, the values of `Cn1ccc(NC(=O)c2cc(Oc3ccc(C(=O)N4CCC4)cc3)c3c(c2)OC(C(F)F)C3)n1` (stereo not shown) [Example 226, 4-[4-(Azetidine-1-carbonyl)-phenoxy]-2-difluoromethyl-2,3-dihydro-benzofuran-6-carboxylic acid (1-methyl-1H-pyrazol-3-yl)-amide] are 112%, 0.64 µM and 137%.
In the same order, the values of `Cn1ccc(NC(=O)c2cc(Oc3ccc(S(C)(=O)=O)cc3)c3c(c2)OC(C)(CO)C3)n1` (stereo not shown) [Example 227, 2-Hydroxymethyl-4-(4-methanesulfonyl-phenoxy)-2-methyl-2,3-dihydro-benzofuran-6-carboxylic acid (1-methyl-1H-pyrazol-3-yl)-amide] are 165%, 0.69 µM and 184%.
On the same counts, the results for `COCC1(C)Cc2c(Oc3ccc(S(C)(=O)=O)cc3)cc(C(=O)Nc3ccn(C)n3)cc2O1` (stereo not shown) [Example 228, 4-(4-Methanesulfonyl-phenoxy)-2-methoxymethyl-2-methyl-2,3-dihydro-benzofuran-6-carboxylic acid (1-methyl-1H-pyrazol-3-yl)-amide] are 151%, 0.5 µM and 156%.
